Where two headings read alike, the source gives them in different places.
Molecular target: T1, human APJ receptor (Homo sapiens, UniProt P35414)
T1 construct: expressed in transfected cells; host or cells: HEK293
T1 sequence (P35414 1-380): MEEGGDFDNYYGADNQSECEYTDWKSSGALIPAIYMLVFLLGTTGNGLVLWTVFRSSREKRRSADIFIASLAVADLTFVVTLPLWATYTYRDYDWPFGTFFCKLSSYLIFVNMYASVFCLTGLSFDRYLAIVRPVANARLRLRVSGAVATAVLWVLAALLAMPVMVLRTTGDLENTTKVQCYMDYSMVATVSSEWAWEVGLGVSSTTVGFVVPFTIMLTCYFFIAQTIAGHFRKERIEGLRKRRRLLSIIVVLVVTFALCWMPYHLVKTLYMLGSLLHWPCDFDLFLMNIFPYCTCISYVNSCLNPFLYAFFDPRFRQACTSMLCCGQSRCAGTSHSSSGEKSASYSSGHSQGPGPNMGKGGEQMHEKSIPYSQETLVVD
Test: Intracellular cAMP Accumulation Assay (APJ hcAMP, HTRF)
Type: cell-based
How it was run: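 Stably transfected HEK293 cells (5,000/well) incubated 30 min at room temperature with serially diluted compound, […] and 2 μM forskolin. cAMP measured by HTRF after 60 min with detection reagents, quantified against a cAMP standard curve; EC50 from variable-slope sigmoidal fit of inhibition of forskolin-stimulated cAMP.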

[1] = human APJ, intracellular cAMP accumulation, read-out: hAPJ cAMP EC50 Potency range
[2] = human APJ, cAMP accumulation, potency range class, read-out: hAPJ cAMP EC50 Potency range
[3] = read-out: hAPJ cAMP EC50 Potency range

EC50 [1] | SMILES | also measured
0.01 to 10 nM | CCOCc1nc(=O)c(C(=O)N2CCC(c3ccc(F)cc3)C2)c(O)n1-c1c(OC)cccc1OC (single isomer, unassigned) [Example 57, 1-(2,6-dimethoxyphenyl)-2-(ethoxymethyl)-5-[3-(4-fluorophenyl)pyrrolidine-1-carbonyl]-6-hydroxy-1,4-dihydropyrimidin-4-one] | –
0.01 to 10 nM | CC[C@@H](c1cc(F)cc(F)c1)n1c(-c2cnn(C)c2)nc(=O)c(C(=O)N2CCC(c3cc(F)ccn3)C2)c1O (single isomer, unassigned) [Example 203] | –
0.01 to 10 nM | COc1cccc(OC)c1-n1c(CCC(C)C)nc(=O)c(C(=O)N2CC[C@@H](c3ccccc3)C2)c1O [Example 24, (S)-1-(2,6-dimethoxyphenyl)-6-hydroxy-2-isopentyl-5-(3-phenylpyrrolidine-1-carbonyl)pyrimidin-4(1H)-one] | –
10 to 100 nM | CCCCc1nc(=O)c(C(=O)N2CC[C@@H](c3ccccc3)C2)c(O)n1[C@H](COC)c1ccccc1 [Example 154, 2-butyl-6-hydroxy-3-[(1S)-2-methoxy-1-phenylethyl]-5-[(3S)-3-phenylpyrrolidine-1-carbonyl]-3,4-dihydropyrimidin-4-one] | –
0.01 to 10 nM | CCOCc1nc(=O)c(C(=O)N2CCC(c3ccccn3)C2)c(O)n1-c1c(OC)cccc1OC (single isomer, unassigned) [Example 55, 1-(2,6-dimethoxyphenyl)-2-(ethoxymethyl)-6-hydroxy-5-[3-(pyridin-2-yl)pyrrolidine-1-carbonyl]-1,4-dihydropyrimidin-4-one] | –

The next lines start with the compound.

SMILES | EC50 [1] | also measured
COc1cccc(OC)c1-n1c(COC(C)C)nc(=O)c(C(=O)N2CC(c3ccc(C)cc3)C2)c1O [Example 111, 1-(2,6-dimethoxyphenyl)-6-hydroxy-5-[3-(4-methylphenyl)azetidine-1-carbonyl]-2-[(propan-2-yloxy)methyl]-1,4-dihydropyrimidin-4-one] | 10 to 100 nM | –
COc1cccc(OC)c1-n1c(COC(C)(C)C)nc(=O)c(C(=O)N2CCC(c3ccc(F)cc3)C2)c1O (stereo not shown) [Example 44, 2-[(tert-butoxy)methyl]-1-(2,6-dimethoxyphenyl)-5-[3-(4-fluorophenyl)pyrrolidine-1-carbonyl]-6-hydroxy-1,4-dihydropyrimidin-4-one] | 0.01 to 10 nM | –
CCCCc1nc(=O)c(C(=O)N2CC[C@@H](c3ccccc3)C2)c(O)n1[C@@H](CC)c1ccccc1 [Example 121, 2-butyl-6-hydroxy-3-[(1S)-1-phenylpropyl]-5-[(3S)-3-phenylpyrrolidine-1-carbonyl]-3,4-dihydropyrimidin-4-one] | 0.01 to 10 nM | –
CC[C@@H](c1cc(F)cc(F)c1)n1c(-c2cnn(C)c2)nc(=O)c(C(=O)N2CCC(c3ncc(F)cc3F)C2)c1O (single isomer, unassigned) [Example 188] | 0.01 to 10 nM | –
C=CCCc1nc(=O)c(C(=O)N2CC[C@@H](c3ccccc3)C2)c(O)n1-c1c(OC)cccc1OC [Example 16, (S)-2-(but-3-en-1-yl)-3-(2,6-dimethoxyphenyl)-6-hydroxy-5-(3-phenylpyrrolidine-1-carbonyl)pyrimidin-4(3H)-one] | – | EC50: 0.01 to 10 nM
CCc1cccc(CC)c1-n1c(-c2ccn(C(C)C)n2)nc(=O)c(C(=O)N2CC[C@@H](c3ccccc3)C2)c1O [Example 289, 1-(2,6-diethylphenyl)-6-hydroxy-5-[(3S)-3-phenylpyrrolidine-1-carbonyl]-2-[1-(propan-2-yl)-1H-pyrazol-3-yl]-1,4-dihydropyrimidin-4-one] | – | EC50 [2]: 0.01 to 10 nM
CC[C@@H](c1cc(F)cc(F)c1)n1c(-c2cnn(C)c2)nc(=O)c(C(=O)N2CCC(c3ncccc3F)C2)c1O (single isomer, unassigned) [Example 219] | 0.01 to 10 nM | –
CCCCc1nc(=O)c(C(=O)N2CCC(c3ccc(F)cn3)C2)c(O)n1-c1c(OC)cccc1OC (single isomer, unassigned) [Example 371, 2-butyl-1-(2,6-dimethoxyphenyl)-5-(3-(5-fluoropyridin-2-yl)pyrrolidine-1-carbonyl)-6-hydroxypyrimidin-4(1H)-one] | – | EC50 [3]: 0.01 to 10 nM
CCCCc1nc(=O)c(C(=O)N2CC[C@H](NC(=O)OCc3ccccc3)C2)c(O)n1-c1c(OC)cccc1OC [Example 58, benzyl N-[(3S)-1-[2-butyl-1-(2,6-dimethoxyphenyl)-6-hydroxy-4-oxo-1,4-dihydropyrimidine-5-carbonyl]pyrrolidin-3-yl]carbamate] | 10 to 100 nM | –
CCCCc1nc(=O)c(C(=O)N2CCC(c3ccc(F)cc3)C2)c(O)n1-c1c(OC)cccc1OC (single isomer, unassigned) [Example 77, 2-butyl-1-(2,6-dimethoxyphenyl)-5-[3-(4-fluorophenyl)pyrrolidine-1-carbonyl]-6-hydroxy-1,4-dihydropyrimidin-4-one] | 0.01 to 10 nM | –
COc1cccc(OC)c1-n1c(COC(C)(C)C)nc(=O)c(C(=O)N2CC[C@H](c3ccccc3)C2)c1O [Example 51, 2-[(tert-butoxy)methyl]-1-(2,6-dimethoxyphenyl)-6-hydroxy-5-[(3R)-3-phenylpyrrolidine-1-carbonyl]-1,4-dihydropyrimidin-4-one] | 0.01 to 10 nM | –
CCCCc1nc(=O)c(C(=O)N2Cc3ccncc3C2)c(O)n1-c1c(OC)cccc1OC [Example 60, 2-butyl-1-(2,6-dimethoxyphenyl)-6-hydroxy-5-{1H,2H,3H-pyrrolo[3,4-c]pyridine-2-carbonyl}-1,4-dihydropyrimidin-4-one] | 10 to 100 nM | –
COc1cccc(OC)c1-n1c(-c2ccc(C)nc2)nc(=O)c(C(=O)N2CCC(c3c(F)cccc3F)C2)c1O (single isomer, unassigned) [Example 252, 5-[3-(2,6-difluorophenyl)pyrrolidine-1-carbonyl]-1-(2,6-dimethoxyphenyl)-6-hydroxy-2-(6-methylpyridin-3-yl)-1,4-dihydropyrimidin-4-one] | – | EC50 [2]: 0.01 to 10 nM
CCc1cccc(CC)c1-n1c(-c2csc(C)n2)nc(=O)c(C(=O)N2CCC(c3ncccc3F)C2)c1O (single isomer, unassigned) [Example 302, 1-(2,6-diethylphenyl)-5-[3-(3-fluoropyridin-2-yl)pyrrolidine-1-carbonyl]-6-hydroxy-2-(2-methyl-1,3-thiazol-4-yl)-1,4-dihydropyrimidin-4-one] | – | EC50 [2]: 0.01 to 10 nM
COc1cccc(OC)c1-n1c(-c2cc(C)ccn2)nc(=O)c(C(=O)N2CCC(c3ccccc3F)C2)c1O (single isomer, unassigned) [Example 239, 1-(2,6-dimethoxyphenyl)-5-[3-(2-fluorophenyl)pyrrolidine-1-carbonyl]-6-hydroxy-2-(4-methylpyridin-2-yl)-1,4-dihydropyrimidin-4-one] | – | EC50 [2]: 0.01 to 10 nM
COc1cccc(OC)c1-n1c(-c2cncc(Cl)c2)nc(=O)c(C(=O)N2CCC(c3ccc(F)cc3F)C2)c1O (single isomer, unassigned) [Example 260, 2-(5-chloropyridin-3-yl)-5-[3-(2,4-difluorophenyl)pyrrolidine-1-carbonyl]-1-(2,6-dimethoxyphenyl)-6-hydroxy-1,4-dihydropyrimidin-4-one] | – | EC50 [2]: 0.01 to 10 nM
COc1ccnc(-c2nc(=O)c(C(=O)N3CCC(c4c(F)cccc4F)C3)c(O)n2-c2c(OC)cccc2OC)c1 (single isomer, unassigned) [Example 273, 5-[3-(2,6-difluorophenyl)pyrrolidine-1-carbonyl]-1-(2,6-dimethoxyphenyl)-6-hydroxy-2-(4-methoxypyridin-2-yl)-1,4-dihydropyrimidin-4-one] | – | EC50 [2]: 0.01 to 10 nM
CCCCc1nc(=O)c(C(=O)N2CCC(Oc3cccc(F)c3F)CC2)c(O)n1-c1c(OC)cccc1OC [Example 387, 2-butyl-5-(4-(2,3-difluorophenoxy)piperidine-1-carbonyl)-1-(2,6-dimethoxyphenyl)-6-hydroxypyrimidin-4(1H)-one] | – | EC50 [3]: 0.01 to 10 nM
CCCCc1nc(=O)c(C(=O)N2CC[C@@H](NC(=O)OCc3ccccc3)C2)c(O)n1-c1c(OC)cccc1OC [Example 62, benzyl N-[(3R)-1-[2-butyl-1-(2,6-dimethoxyphenyl)-6-hydroxy-4-oxo-1,4-dihydropyrimidine-5-carbonyl]pyrro1idin-3-yl]carbamate] | 10 to 100 nM | –
COc1cccc(OC)c1-n1c(CCC2CC2)nc(=O)c(C(=O)N2CCC(c3ncc(Cl)cc3F)C2)c1O (single isomer, unassigned) [Example 180, 5-[3-(5-chloro-3-fluoropyridin-2-yl)pyrrolidine-1-carbonyl]-2-(2-cyclopropylethyl)-1-(2,6-dimethoxyphenyl)-6-hydroxy-1,4-dihydropyrimidin-4-one] | 0.01 to 10 nM | –
CCCCc1nc(=O)c(C(=O)N2CCC(c3ccncc3)CC2)c(O)n1-c1c(OC)cccc1OC [Example 71, 2-butyl-1-(2,6-dimethoxyphenyl)-6-hydroxy-5-[4-(pyridin-4-yl)piperidine-1-carbonyl]-1,4-dihydropyrimidin-4-one] | 0.01 to 10 nM | –
CCCCc1nc(=O)c(C(=O)N2CCC(c3ccc(Cl)cc3)C2)c(O)n1-c1c(OC)cccc1OC (single isomer, unassigned) [Example 46, 2-butyl-5-[3-(4-chlorophenyl)pyrrolidine-1-carbonyl]-1-(2,6-dimethoxyphenyl)-6-hydroxy-1,4-dihydropyrimidin-4-one] | – | EC50: 0.01 to 10 nM
CCCCc1nc(=O)c(C(=O)N2Cc3cccnc3C2)c(O)n1-c1c(OC)cccc1OC [Example 61, 2-butyl-1-(2,6-dimethoxyphenyl)-6-hydroxy-5-{5H,6H,7H-pyrrolo[3,4-b]pyridine-6-carbonyl}-1,4-dihydropyrimidin-4-one] | 10 to 100 nM | –
